{"source": "patent US8187878B2", "about": "“Methods for increasing definitive endoderm differentiation of pluripotent human embryonic stem cells with PI-3 kinase inhibitors” (University of Georgia Research Foundation, Inc., priority 2004, dated 2012)", "molecules": {"B1": {"name": "Follistatin: inhibitor of Activin signaling (protein, UniProt P19883 30-344, looked up)", "Follistatin": "GNCWLRQAKNGRCQVLYKTELSKEECCSTGRLSTSWTEEDVNDNTLFKWMIFNGGAPNCIPCKETCENVDCGPGKKCRMNKKNKPRCVCAPDCSNITWKGPVCGLDGKTYRNECALLKARCKEQPELEVQYQGRCKKTCRDVFCPGSSTCVVDQTNNAYCVTCNRICPEPASSEQYLCGNDGVTYSSACHLRKATCLLGRSIGLAYEGKCIKAKSCEDIQCTGGKKCLWDFKVGRGRCSLCDELCPDSKSDEPVCASDNATYASECAMKEAACSSGVLLEVKHSGSCNSISEDTEEEEEDEDQDYSFPISSILEW"}, "B2": {"name": "Activin A: member of the TGFβ family (protein, UniProt P08476 311-426, looked up)", "Inhibin beta A chain": "GLECDGKVNICCKKQFFVSFKDIGWNDWIIAPSGYHANYCEGECPSHIAGTSGSSLSFHSTVINHYRMRGHSPFANLKSCCVPTKLRPMSMLYYDDGQNIIKKDIQNMIVEECGCS"}, "B3": {"name": "Nodal: member of the TGFβ family (protein, UniProt Q96S42 238-347, looked up)", "Nodal homolog": "HHLPDRSQLCRKVKFQVDFNLIGWGSWIIYPKQYNAYRCEGECPNPVGEEFHPTNHAYIQSLLKRYQPHRVPSTCCAPVKTKPLSMLYVDNGRVLLDHHKDMIVEECGCL"}}, "key": {"BG01 cells [1]": {"system": "BG01 cells", "assay": "Sox17 Q-PCR, GSK3 inhibitor on LY 294002 induced DE formation", "format": "cell-based, human", "details": "60 μM LY 294002; BIO 0.1-5 μM, MeBIO 1-5 μM; 3-4 days", "procedure": "BG01 cells were passaged on matrigel using the collagenase/trypsin method as described above and were plated on matrigel-coated chamber slides in CM. After approximately 24 hours, the medium was changed, and the cells were treated with 60 μM LY 294002, BIO, meBIO, or DMSO for approximately 3-4 days. The inhibitor BIO (Dr. Ali Brivanlou) was diluted in DMSO and was used at a concentration of approximately 0.1-5 μM. MeBIO (Dr. Ali Brivanlou) was also diluted in DMSO and used at a concentration of approximately 1-5 μM. Assays were performed in triplicate and are shown as +/−SEM.\nCells were grown in these conditions for approximately 3-4 days with a medium change every 24 hours. Cells were harvested using the collagenase/trypsin method for Q-PCR as described above"}, "BG01 cell line": {"system": "BG01 cell line", "assay": "SOX17 and AFP immunofluorescence staining", "format": "cell-based, human", "procedure": "Cells to be immunostained were grown on chamber slides, and were rinsed once with 1×PBS and fixed for 10 minutes in 4% PFA/4% sucrose in PBS pH 7.4 at room temperature. They were then rinsed 3× in 1×PBS and blocked in 3% goat serum with 0.1% Triton-X100 in PBS for 1 hour at room temperature. Primary antibodies were diluted in 3% goat serum in PBS and this solution was applied overnight at 4° C. The primary antibodies used were rabbit anti-human AFP (Zymed), used at a 1:50 dilution, and rat anti-human SOX17 (obtained from Cythera, Inc.), used at 1:1000 dilution. Cells were washed for 1 hour with 3 changes of 1×PBS. Secondary antibodies were applied for 2 hours at room temperature. Secondary antibodies used were goat anti-rabbit Alexa Fluor 488 and goat anti-rat Alexa Fluor 594 (Molecular Probes), both at a 1:1000 dilution in 3% goat serum in 1×PBS. Cells were washed for 1 hour with 3 changes of 1×PBS. The chambers were removed and slides were mounted in VectaShield mounting medium with DAPI (Vector)."}, "hESCs": {"system": "hESCs", "assay": "Kidney capsule assay of LY 294002 treated hESCs", "format": "in vivo, SCID-beige mice", "details": "relative to LY 294002 treated cells that were not implanted", "procedure": "Untreated hESCs or hESCs treated for 4 days with 60 μM LY 294002 were collagenase treated to generate cell aggregates (˜50 cells/aggregate), washed in warm media, then gently resuspended in 2 ml DMEM/F12, 10% FCS and left overnight at 37° C., 10% CO2 to facilitate further aggregation. Approximately 2.5×10^6 cells were injected into the kidney capsule of 5 week old male SCID-beige mice. 6 weeks after transplantation, mice were sacrificed, and the kidneys were removed and fixed in 4% paraformaldehyde. Following fixation, kidneys were embedded in paraffin wax, sectioned and mounted onto glass slides in preparation for H&E and immunostaining. After mounting, slides underwent deparaffinization, rehydration and heat induced epitope retrieval with Trilogy (Cell Marque, CMX-833). Slides were stained using the alkaline phosphatase Vectastain ABC System (Vector Labs, AK-5002) and Vector Red substrate (Vector Labs, SK-5100). […] For fluorescence immunocytochemistry the following secondary antibodies were used; Alexa Fluor 488 goat anti-mouse IgG (Molecular Probes, A11001), Alexa Fluor 594 goat anti-rabbit IgG (Molecular Probes, A11012)."}, "hESC": {"system": "hESC", "assay": "Sox17 Q-PCR, MEF-CM and LY 294002 with signaling inhibitors", "format": "cell-based, human", "details": "proteins approximately 500 ng/ml, SB-43152 approximately 10 μM, SU-5402 approximately 5 μM", "procedure": "Sox 17 expression was evaluated by Q-PCR under culture conditions competent to support hESC-DE formation (MEF-CM and LY 294002) in the presence or absence of Chordin (approximately 500 ng/ml), Follistatin (approximately 500 ng/ml), Lefty-A (approximately 500 ng/ml), Noggin (approximately 500 ng/ml), SB-43152 (approximately 10 μM), and SU-5402 (approximately 5 μM). Assays were performed in triplicate and are shown as +/−SEM."}, "BG01 cells [2]": {"system": "BG01 cells", "assay": "Sox17 Q-PCR, LY 294002 with conditioned medium or TGFβ members", "format": "cell-based, human", "details": "UCM, approximately 4 days", "procedure": "BG01 cells were passaged from feeders using the collagenase/trypsin method and were plated on matrigel coated dishes at 1×10^5 cells/35 mm dish in unconditioned hES medium (UCM). After approximately 24 hours, the media was replaced with fresh hES medium or MEF-CM, along with LY 294002, Activin A, or Nodal as shown in FIG. 8A. LY 294002 was used at a concentration of approximately 60 μM; Activin A was used at a concentration of approximately 100 ng/ml; and Nodal was used at a concentration of approximately 1 μg/ml. Cells were treated for approximately 4 days, with a change in medium every 24 hours. Cells were harvested using the collagenase/trypsin method for Q-PCR analysis. Sox-17 Q-PCR was performed as described in Example 3."}}}
{"molecule": "O=C1Nc2cc(Br)ccc2/C1=C1/Nc2ccccc2/C1=N\\O", "note": "[BIO]", "values": [{"measurement": "LY 294002 induced DE formation as determined by Sox17 expression", "setting": "BG01 cells [1]", "result": "blocked"}]}
{"molecule": "O=c1cc(N2CCOCC2)oc2c(-c3ccccc3)cccc12", "note": "[LY 294002]", "values": [{"measurement": "cell population expressing SOX17", "setting": "BG01 cell line; counting 500 cells", "result": 60, "unit": "%"}, {"measurement": "cells expressing SOX17", "setting": "BG01 cell line; of 500 cells counted", "result": 296, "unit": "cells"}, {"measurement": "increase in FABP1 mRNA", "setting": "hESCs", "result": 1000, "unit": "fold"}, {"measurement": "increase in albumin mRNA", "setting": "hESCs", "result": 4500, "unit": "fold"}]}
{"molecule": "NC(=O)c1ccc(-c2nc(-c3ccccn3)c(-c3ccc4c(c3)OCO4)[nH]2)cc1", "note": "[SB-43152]", "values": [{"measurement": "LY 294002, MEF-CM dependent Sox17 expression", "setting": "hESC", "result": "suppressed"}]}
{"molecule": "MeBIO", "values": [{"measurement": "LY 294002 induced DE formation as determined by Sox17 expression", "setting": "BG01 cells [1]", "result": "not"}]}
{"molecule": "B1", "values": [{"measurement": "LY 294002, MEF-CM dependent Sox17 expression", "setting": "hESC", "result": "suppressed"}]}
{"molecule": "B2", "values": [{"measurement": "Sox17 expression (fold-increase over untreated)", "setting": "BG01 cells [2]; LY 294002 approximately 60 μM plus Activin A approximately 100 ng/ml", "result": "Significant Sox17 expression"}]}
{"molecule": "B3", "values": [{"measurement": "Sox17 expression (fold-increase over untreated)", "setting": "BG01 cells [2]; LY 294002 approximately 60 μM plus Nodal approximately 1 μg/ml", "result": "Significant Sox17 expression"}]}
